Molecular target: T1, CFTR (Homo sapiens, UniProt P13569, DEL508-508)
T1 construct: endogenous in cells; host or cells: primary human bronchial epithelial cells from CF subjects (F508del/MF-HBE), differentiated at air-liquid interface
Assay: HBE2 assay: Ussing chamber assay of CFTR-mediated short-circuit currents
Assay type: cell-based
Details: F508del/MF-HBE cells, with 44 nM potentiator, 18-24 hours, 20% human serum; for Emax: read-out: HBE2 Max activity (%)
How it was run: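 F508del/MF-HBE cultured >14 days at air-liquid interface, mounted in Ussing chambers; transepithelial short-circuit current recorded under voltage clamp (Vhold=0 mV) at 37 °C. CFTR-mediated ISC (μA/cm^2) taken as peak forskolin response relative to steady-state current after inhibition; corrector activity assessed this way.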

T1 sequence (P13569 with tags, fused parts or gaps DEL508-508): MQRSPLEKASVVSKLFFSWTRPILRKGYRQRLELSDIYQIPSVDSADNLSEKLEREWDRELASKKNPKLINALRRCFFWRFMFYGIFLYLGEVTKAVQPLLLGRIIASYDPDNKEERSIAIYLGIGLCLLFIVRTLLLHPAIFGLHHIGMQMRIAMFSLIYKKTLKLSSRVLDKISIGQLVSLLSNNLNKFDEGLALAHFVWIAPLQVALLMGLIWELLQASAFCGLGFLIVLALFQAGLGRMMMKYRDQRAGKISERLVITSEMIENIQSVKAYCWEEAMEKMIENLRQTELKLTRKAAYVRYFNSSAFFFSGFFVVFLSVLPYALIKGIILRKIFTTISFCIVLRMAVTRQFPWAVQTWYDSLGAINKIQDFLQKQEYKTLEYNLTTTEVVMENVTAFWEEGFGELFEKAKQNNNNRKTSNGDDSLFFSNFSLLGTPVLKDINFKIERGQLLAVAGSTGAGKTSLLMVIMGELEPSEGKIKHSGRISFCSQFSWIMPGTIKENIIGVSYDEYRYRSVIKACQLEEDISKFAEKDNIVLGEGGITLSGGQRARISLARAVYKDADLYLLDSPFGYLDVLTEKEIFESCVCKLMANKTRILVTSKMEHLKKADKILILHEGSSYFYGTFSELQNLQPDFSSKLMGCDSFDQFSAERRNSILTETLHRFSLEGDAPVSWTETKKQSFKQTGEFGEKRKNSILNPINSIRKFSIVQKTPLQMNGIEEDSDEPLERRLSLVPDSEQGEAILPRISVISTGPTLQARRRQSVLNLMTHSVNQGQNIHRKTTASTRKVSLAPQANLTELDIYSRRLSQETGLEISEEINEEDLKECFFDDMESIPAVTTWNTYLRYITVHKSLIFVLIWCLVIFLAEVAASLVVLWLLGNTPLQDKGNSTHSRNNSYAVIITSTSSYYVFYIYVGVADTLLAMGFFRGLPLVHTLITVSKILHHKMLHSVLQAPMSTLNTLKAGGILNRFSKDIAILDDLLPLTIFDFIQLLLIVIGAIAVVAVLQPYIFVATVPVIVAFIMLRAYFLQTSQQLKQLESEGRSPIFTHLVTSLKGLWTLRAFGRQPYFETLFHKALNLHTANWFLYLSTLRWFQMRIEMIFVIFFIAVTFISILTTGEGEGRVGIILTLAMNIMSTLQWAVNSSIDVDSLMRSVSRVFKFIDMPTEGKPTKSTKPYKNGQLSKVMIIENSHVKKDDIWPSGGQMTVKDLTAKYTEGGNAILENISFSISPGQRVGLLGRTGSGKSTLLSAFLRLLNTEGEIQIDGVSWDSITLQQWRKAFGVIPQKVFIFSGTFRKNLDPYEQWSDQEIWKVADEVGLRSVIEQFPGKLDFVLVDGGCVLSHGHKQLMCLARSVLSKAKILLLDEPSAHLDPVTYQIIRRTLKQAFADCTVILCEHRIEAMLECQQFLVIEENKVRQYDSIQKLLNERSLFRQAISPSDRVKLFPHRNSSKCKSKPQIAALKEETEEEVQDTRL

Compound	HBE2 Activity at 3 μM (%)	EC50 [nM]	Emax [%]
Cc1cccc(C)c1-c1cc2nc(n1)NS(=O)(=O)c1cccc(c1)C(=O)N(Cc1cncc(N3CC(=O)N(C)C[C@H]3C)n1)[C@H](CC(C)(C)C)CO2 [Compound 1644]	+++ (+++ is >60+)	–	–
CCN(c1nc(CN2C(=O)c3cccc(c3)S(=O)(=O)Nc3nc(cc(-c4c(C)cccc4C)n3)OC[C@H]2CC(C)(C)C)co1)C1CCC1 [Compound 1645]	+++ (+++ is >60+)	–	–
Cc1cccc(C)c1-c1cc2nc(n1)NS(=O)(=O)c1cccc(c1)C(=O)N(Cc1coc(N(C)CC3CCC3)n1)[C@H](CC(C)(C)C)CO2 [Compound 1646]	+++ (+++ is >60+)	–	–
Cc1cccc(C)c1-c1cc2nc(n1)NS(=O)(=O)c1cccc(c1)C(=O)N(Cc1coc(N(C)C3CC(F)(F)C3)n1)[C@H](CC(C)(C)C)CO2 [Compound 1647]	+++ (+++ is >60+)	–	–
Cc1cccc(C)c1-c1cc2nc(n1)NS(=O)(=O)c1cccc(c1)C(=O)N(Cc1cncc(N(C)CCN(C)C(=O)OC(C)(C)C)n1)[C@H](CC(C)(C)C)CO2 [Compound 1648]	+++ (+++ is >60+)	–	–
Cc1cccc(C)c1-c1cc2nc(n1)NS(=O)(=O)c1cccc(c1)C(=O)N(Cc1cncc(N(C)CCOC(C)(C)C)n1)[C@H](CC(C)(C)C)CO2 [Compound 1650]	+++ (+++ is >60+)	–	–
Cc1cccc(C)c1-c1cc2nc(n1)NS(=O)(=O)c1cccc(c1)C(=O)N(Cc1nc(N(C)C3CCC3)c(C)nc1C)[C@H](CC(C)(C)C)CO2 [Compound 1651]	+++ (+++ is >60+)	–	–
Cc1cccc(C)c1-c1cc2nc(n1)NS(=O)(=O)c1cccc(c1)C(=O)N(Cc1cncc(N3CCCC3=O)n1)[C@H](CC(C)(C)C)CO2 [Compound 1652]	+++ (+++ is >60+)	–	–
Cc1cccc(C)c1-c1cc2nc(n1)NS(=O)(=O)c1cccc(c1)C(=O)N(Cc1cncc(N3C(=O)OC[C@H]3C)n1)[C@H](CC(C)(C)C)CO2 [Compound 1653]	+++ (+++ is >60+)	–	–
Cc1cccc(C)c1-c1cc2nc(n1)NS(=O)(=O)c1cccc(c1)C(=O)N(Cc1cnc(N3CC(C)(C)C3)cn1)[C@H](CC(C)(C)C)CO2 [Compound 1654]	+++ (+++ is >60+)	–	–
Cc1cccc(C)c1-c1cc2nc(n1)NS(=O)(=O)c1cccc(c1)C(=O)N(Cc1ccc(N3CC(C)(C)C3)cn1)[C@H](CC(C)(C)C)CO2 [Compound 1655]	+++ (+++ is >60+)	–	–
CNC(=O)CC1CCCN1c1cncc(CN2C(=O)c3cccc(c3)S(=O)(=O)Nc3nc(cc(-c4c(C)cccc4C)n3)OC[C@H]2CC(C)(C)C)n1 (stereo partly drawn) [Compound 1657]	+++ (+++ is >60+)	–	–
Cc1cccc(C)c1-c1cc2nc(n1)NS(=O)(=O)c1cccc(c1)C(=O)N(Cc1cncc(N3CCCC3CC(=O)N(C)C)n1)[C@H](CC(C)(C)C)CO2 (stereo partly drawn) [Compound 1658]	+++ (+++ is >60+)	–	–
Cc1cccc(C)c1-c1cc2nc(n1)NS(=O)(=O)c1cccc(c1)C(=O)N(Cc1cncc(N3CCCC3C(=O)N(C)C)n1)[C@H](CC(C)(C)C)CO2 (stereo partly drawn) [Compound 1660]	+++ (+++ is >60+)	–	–
CC(=O)N(C)CCN(C)c1cncc(CN2C(=O)c3cccc(c3)S(=O)(=O)Nc3nc(cc(-c4c(C)cccc4C)n3)OC[C@H]2CC(C)(C)C)n1 [Compound 1661]	+++ (+++ is >60+)	–	–
Cc1cccc(C)c1-c1cc2nc(n1)NS(=O)(=O)c1cccc(c1)C(=O)N(Cc1cncc(N(C)CCN(C)C(=O)OC(C)C)n1)[C@H](CC(C)(C)C)CO2 [Compound 1662]	+++ (+++ is >60+)	–	–

Compound	HBE2 Activity at 3 μM (%)	EC50 [nM]	Emax [%]
Cc1cccc(C)c1-c1cc2nc(n1)NS(=O)(=O)c1cccc(c1)C(=O)N(Cc1cncc(N(C)CCO)n1)[C@H](CC(C)(C)C)CO2 [Compound 1665]	+++ (+++ is >60+)	–	–
CNC(=O)OCCN(C)c1cncc(CN2C(=O)c3cccc(c3)S(=O)(=O)Nc3nc(cc(-c4c(C)cccc4C)n3)OC[C@H]2CC(C)(C)C)n1 [Compound 1666]	+++ (+++ is >60+)	–	–
Cc1cccc(C)c1-c1cc2nc(n1)NS(=O)(=O)c1cccc(c1)C(=O)N(Cc1cncc(N(C)CCOC(=O)N(C)C)n1)[C@H](CC(C)(C)C)CO2 [Compound 1667]	+++ (+++ is >60+)	–	–
Cc1cccc(C)c1-c1cc2nc(n1)NS(=O)(=O)c1cccc(c1)C(=O)N(Cc1cncc(N(C)C3CCC3)n1)[C@H](CC1(C)CC1)CO2 [Compound 1668]	+++ (+++ is >60+)	< 1000	> 60
Cc1cccc(C)c1-c1cc2nc(n1)NS(=O)(=O)c1cccc(c1)C(=O)N(Cc1cncc(N(C)C3CCC3)n1)[C@H](CC1CCC1)CO2 [Compound 1669]	+++ (+++ is >60+)	< 1000	> 60
Cc1cccc(C)c1-c1cc2nc(n1)NS(=O)(=O)c1cccc(c1)C(=O)N(Cc1cncc(N(C)C3CCC3)n1)[C@H](CC1CC1)CO2 [Compound 1670]	+++ (+++ is >60+)	< 1000	> 60
Cc1cccc(C)c1-c1cc2nc(n1)NS(=O)(=O)c1cccc(c1)C(=O)N(Cc1cncc(N(C)C3CCC3)n1)[C@H](CC(C)C)CO2 [Compound 1671]	+++ (+++ is >60+)	< 1000	> 60
CC[C@H](C)N(C)c1cncc(CN2C(=O)c3cccc(c3)S(=O)(=O)Nc3nc(cc(-c4c(C)cccc4C)n3)OC[C@H]2CC(C)(C)C)n1 [Compound 1673]	+++ (+++ is >60+)	< 1000	> 60
Cc1cccc(C)c1-c1cc2nc(n1)NS(=O)(=O)c1cccc(c1)C(=O)N(Cc1cncc(N3C(=O)CC[C@H]3C)n1)[C@H](CC(C)(C)C)CO2 [Compound 1674]	+++ (+++ is >60+)	–	–
Cc1cccc(C)c1-c1cc2nc(n1)NS(=O)(=O)c1cccc(c1)C(=O)N(Cc1nc(N(C)C3CCC3)cnc1C)[C@H](CC(C)(C)C)CO2 [Compound 1678]	+++ (+++ is >60+)	–	–
Cc1cccc(C)c1-c1cc2nc(n1)NS(=O)(=O)c1cccc(c1)C(=O)N(Cc1cncc(N3CCC[C@@H]4COC[C@@H]43)n1)[C@H](CC(C)(C)C)CO2 [Compound 1680]	+++ (+++ is >60+)	–	–
COC(=O)N1CC2CCN(c3cncc(CN4C(=O)c5cccc(c5)S(=O)(=O)Nc5nc(cc(-c6c(C)cccc6C)n5)OC[C@H]4CC(C)(C)C)n3)C2C1 (stereo partly drawn) [Compound 1681]	+++ (+++ is >60+)	–	–
Cc1cccc(C)c1-c1cc2nc(n1)NS(=O)(=O)c1cccc(c1)C(=O)N(Cc1cncc(N(C)C3CCC3)n1)[C@H](CC1CC3(CCC3)C1)CO2 [Compound 1682]	+++ (+++ is >60+)	–	–
Cc1cccc(C)c1-c1cc2nc(n1)NS(=O)(=O)c1cccc(c1)C(=O)N(Cc1cncc(N(C)C3CCC3)n1)[C@H](CC1(C)CCC1)CO2 [Compound 1683]	+++ (+++ is >60+)	< 1000	> 60
Cc1cccc(C)c1-c1cc2nc(n1)NS(=O)(=O)c1cccc(c1)C(=O)N(Cc1cncc(N(C)C3CCC3)n1)[C@H](CCC1CC1)CO2 [Compound 1684]	+++ (+++ is >60+)	< 1000	> 60
Cc1cccc(C)c1-c1cc2nc(n1)NS(=O)(=O)c1cccc(c1)C(=O)N(Cc1cncc(N(C)C3CCC3)n1)[C@H](CCC(C)C)CO2 [Compound 1685]	+++ (+++ is >60+)	< 1000	> 60

Source: US20240150377A1, “MODULATORS OF CYSTIC FIBROSIS TRANSMEMBRANE CONDUCTANCE REGULATOR” (VERTEX PHARMACEUTICALS INCORPORATED, priority 2020, published 2024)
